Earlier results as cited in PMC7190335 (Science Advances, 2020).

Target: T1, COUP-TFII (Homo sapiens, UniProt P24468)
T1 sequence (P24468 1-414): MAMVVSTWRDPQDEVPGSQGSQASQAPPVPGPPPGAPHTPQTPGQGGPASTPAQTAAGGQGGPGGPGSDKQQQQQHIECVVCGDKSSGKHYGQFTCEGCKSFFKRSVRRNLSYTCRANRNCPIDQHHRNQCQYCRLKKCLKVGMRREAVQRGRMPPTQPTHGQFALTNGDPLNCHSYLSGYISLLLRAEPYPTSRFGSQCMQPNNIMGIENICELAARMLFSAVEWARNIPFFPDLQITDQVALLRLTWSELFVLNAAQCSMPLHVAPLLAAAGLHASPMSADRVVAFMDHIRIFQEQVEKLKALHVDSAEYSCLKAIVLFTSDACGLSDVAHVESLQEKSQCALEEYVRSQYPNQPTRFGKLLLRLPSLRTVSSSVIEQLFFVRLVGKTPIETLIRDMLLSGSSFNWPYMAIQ

concentration needed to reduce COUP-TFII activity: up to 100 μM
SMILES: COc1ccc(O)c2ccccc12 [4-methoxynaphthol compound, 4-methoxynaphthol]
